Measurements reported in PubChem BioAssay (NCI).
“And” between values parts separate entries of the source, which are not always exact repeats. Identical values can stand only once.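 Where inhibition never reached the appropriate level, the endpoint shown equals the highest concentration tested. Otherwise, values were interpolated linearly from a five-concentration, 48-hour dose response in 96-well plates. GI50 = concentration required for 50% inhibition of growth. At the TGI there is no net growth.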

Legend:
Experiment in all cases: NCI-60 cell line screen, 48 h
[1] = tested on: SF-295 CNS
[2] = tested on: HCT-15 colon
[3] = tested on: TK-10 renal
[4] = tested on: IGROV1 ovarian
[5] = tested on: ACHN renal
[6] = tested on: SF-539 CNS
[7] = tested on: KM12 colon
[8] = tested on: SK-OV-3 ovarian
[9] = tested on: SNB-75 CNS
[10] = tested on: OVCAR-4 ovarian

SMILES	TGI [1] [µM]	TGI [2] [µM]	TGI [3] [µM]	TGI [4] [µM]	TGI [5] [µM]	TGI [6] [µM]	TGI [7] [µM]	TGI [8] [µM]	TGI [9]	TGI [10] [µM]	GI50 [1] [nM]	GI50 [2] [nM]	GI50 [3] [µM]	GI50 [4] [nM]	GI50 [5] [nM]	GI50 [6] [nM]	GI50 [7] [nM]	GI50 [8] [nM]	GI50 [9]	GI50 [10] [µM]
O=P(CN1CCOCC1)(c1ccccc1)c1ccccc1	> 100	> 100	> 100	> 100	> 100	> 100	> 100	> 100	> 100 µM	> 100										
Cc1c(Cl)ccc2c1NC(=O)C2(O)CC(=O)c1ccc(Cl)cc1 (configuration not stated)	> 58.3	> 60.1	> 100	> 100	> 100	> 100	> 100	> 100	> 100 µM	> 100										
CCCCCCCCCCCCCCCCCc1nc(Cl)nc(Cl)c1Cl	> 100	> 100	> 100	> 100	> 100	> 100	> 100	> 100	> 100 µM	> 100										
CC1(C)N=C(N)N=C(N)N1c1ccc(CCCC(=O)Nc2ccc(S(=O)(=O)F)cc2)cc1	> 100	> 100	> 100	> 100	> 100	> 100	> 100	> 100	> 100 µM	> 100	38600	39300	7.63	570	58700	2620	3540	> 100000	10200 nM	> 62.3
CN1C2C=CC(=O)C1C1C(=O)N(c3ccccc3)C(=O)C12 (configuration not stated)	36.7	20.3	18.9	27.9	20.9	17.7	18.4	> 100	29.2 µM	38.7	3060	5520	4.55	12100	6930	4870	5170	26700	13000 nM	11.7
COc1ccc(/C=C/C(=O)c2c(-c3ccccc3)nn(C)c(=O)c2N2CC2C)cc1 (configuration not stated)	> 100	80.5	> 100	> 100	> 100	> 100	> 100	71.3	73.9 µM	84										
COc1cc2ncn(-c3cc(OCc4ccccc4C(F)(F)F)c(C(N)=O)s3)c2cc1OC	6.9	> 25	12.8	> 25	> 25	> 11.6	> 25	9.09	9.31 µM	> 25	131	211	3.29	933	2790	139	95.8	251	2700 nM	> 23.5
O=C(/C=C/c1ccc(O)c(O)c1)N1CCN(c2ccc(Cl)cc2)CC1	> 100	29.2	26.2	80.5	38.2	21.1	26.6	67.7	30.2 µM	39.5	19100	3830	3.59	4500	4010	4400	7650	10100	2930 nM	3.48
O=[N+]([O-])c1ccccc1N=Nc1c(O)[nH]c2c(Cl)cccc12	31.6	> 100	> 54.9	> 47.8	> 45.8	> 100	> 80.3	54.7	51.7 µM	24.8										
N#C/C(=C\c1ccc(O)cc1)C(N)=O	> 100	> 100	> 100	> 100	> 100	> 100	> 100	> 100	> 94.3 µM and 54.7 µM	> 100									> 49900 nM and 12700 nM	
CC1(C)CC(O)CC(C)(C)N1O	> 100	> 100	> 100	> 100	> 100	> 100	> 100	> 100	> 100 µM	> 100										> 100
Nc1ccc(CC[C@H]2CCC/C=C/[C@@H]3C[C@H](O)C[C@H]3[C@H](O)/C=C/C(=O)O2)cc1	> 100	16.7	0.831	0.175	> 100	> 100	0.0615	> 100	> 100 µM	2.73	47.6	45.5	0.0382	36.7	41.3	56.2	23.5	48.3	18.9 nM	0.0339
[O]=[Sn]([CH]1CCCCC1)[CH]1CCCCC1	1.35	0.691	1.14	0.915	1.12	0.71	1.25	2.52	0.562 µM	1.46	319	197	0.267	274	309	240	341	1200	158 nM	0.342
COc1ccc2nc3ccccc3c(NCCNCCO)c2c1	2.62	22.2	9.96	3.06	21.1	2.99	3.37	7.67	2.13 µM	3.26	484	2040	0.716	540	478	801	455	869	854 nM	0.836
Cc1cc(Cl)ccc1N=C1NC(=O)C(CC(=O)Nc2cccc(Cl)c2)S1 (configuration not stated)	> 100	> 100	> 100	> 100	> 100	> 100	> 100	> 100	> 100 µM	> 100										
O=c1cc(-c2ccccc2)oc2ccc(Cl)cc12	99.1	> 100	92.7	> 100	> 90.6	> 97.4	> 80.6	> 100	> 85.7 µM	> 96.3										
C=C1C(=O)OC2CC(C)C(/C=C/C(C)=O)=CCC12 (configuration not stated)	> 100	> 100	> 100	> 100	> 100	> 100	> 100	> 100	> 100 µM	> 100										
